Results reported in patent US6004790A, “Cyclomaltodextrin glucanotransferase variants” (priority 1995, dated 1999).

Key:
Assay in all cases: Kinetic studies of β-cyclodextrin forming activity on Paselli SA2 with and without β-cyclodextrin (product inhibition)
Format in all cases: biochemical
[1] = target: T1, Bacillus circulans Strain 251 CGTase (cyclomaltodextrin glucanotransferase), wild type, SEQ ID NO: 70 (Niallia circulans, UniProt P43379); settings: inhibition by β-cyclodextrin (0.1 or 0.2 mM), substrate 0-5% Paselli SA2, 50° C., Hill equation fit
T1 construct: a high extracellular production of wild-type enzyme and CGTase variants was obtained reproducibly; made in house; host or cells: Bacillus subtilis Strain DB104A (plasmid pDP66K)
T1 sequence (P43379 28-713): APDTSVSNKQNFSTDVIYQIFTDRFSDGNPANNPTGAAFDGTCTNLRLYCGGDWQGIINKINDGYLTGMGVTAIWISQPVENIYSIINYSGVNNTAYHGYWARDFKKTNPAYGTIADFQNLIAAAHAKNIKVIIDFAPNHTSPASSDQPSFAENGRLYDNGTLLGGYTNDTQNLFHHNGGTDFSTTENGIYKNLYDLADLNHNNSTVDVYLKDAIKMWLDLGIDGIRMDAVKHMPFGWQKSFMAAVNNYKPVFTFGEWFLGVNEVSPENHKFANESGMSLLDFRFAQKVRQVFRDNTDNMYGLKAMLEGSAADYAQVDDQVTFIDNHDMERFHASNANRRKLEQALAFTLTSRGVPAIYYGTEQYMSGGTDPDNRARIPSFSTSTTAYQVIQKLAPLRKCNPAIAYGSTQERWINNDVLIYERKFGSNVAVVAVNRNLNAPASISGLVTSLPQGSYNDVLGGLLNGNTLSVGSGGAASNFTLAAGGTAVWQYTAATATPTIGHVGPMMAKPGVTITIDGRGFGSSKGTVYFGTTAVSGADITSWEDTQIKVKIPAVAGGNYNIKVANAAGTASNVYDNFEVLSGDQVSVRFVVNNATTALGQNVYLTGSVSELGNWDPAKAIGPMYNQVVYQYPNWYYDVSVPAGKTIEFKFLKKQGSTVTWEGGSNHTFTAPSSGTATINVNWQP
Experimental: (§1) β-cyclodextrin Forming Activity: β-cyclodextrin forming activity was determined using 5% Paselli™ SA2 (i.e. partially hydrolysed potato starch with an average degree of polymerization of 50, available from AVEBE, Foxhol, The Netherlands) as substrate and after incubation for 3 minutes at 50° C. 0.1-0.1 units of activity were used. The β-cyclodextrin formed was determined based on its ability to form a stable colorless inclusion complex with phenolphthalein. One unit of activity is defined as the amount of enzyme able to form 1 μmol of β-cyclodextrin per minute.
(§2) Kinetic Studies: Kinetic studies on Paselli™ SA2 (AVEBE, Foxhol, The Netherlands) were performed by determination of the β-cyclodextrin forming activity of the enzyme on Paselli™ concentrations ranging from 0 to 5%, with and without addition of 0.1 or 0.2 mM of β-cyclodextrin. In these experiments approx. 0.6 μg/ml (0.15-0.18 units) of enzyme was used.
(§3) The data collected from these kinetic and binding studies were fitted using the Hill equation, yielding Ymax and K50 values for the binding studies, and Vmax and K50 values for the kinetic studies. Ki values were calculated as follows. [formula] Results

[2] = target: T2, Bacillus circulans Strain 251 CGTase variant W616A/W662A (Niallia circulans, UniProt P43379, W643A/W689A)
T2 construct: a high extracellular production of wild-type enzyme and CGTase variants was obtained reproducibly; made in house; host or cells: Bacillus subtilis Strain DB104A (plasmid pDP66K)
T2 sequence (P43379 28-713 W643A/W689A): as the sequence (P43379 28-713) above, with W616A, W662A counted along it
Experimental: as §1, §2, §3

[3] = target: T3, Bacillus circulans Strain 251 CGTase variant Y633A (Niallia circulans, UniProt P43379, Y660A)
T3 construct: a high extracellular production of wild-type enzyme and CGTase variants was obtained reproducibly; made in house; host or cells: Bacillus subtilis Strain DB104A (plasmid pDP66K)
T3 sequence (P43379 28-713 Y660A): as the sequence (P43379 28-713) above, with Y633A counted along it
Experimental: as §1, §2, §3

SMILES: OC[C@H]1O[C@@H]2O[C@H]3[C@H](O)[C@@H](O)[C@@H](O[C@H]4[C@H](O)[C@@H](O)[C@@H](O[C@H]5[C@H](O)[C@@H](O)[C@@H](O[C@H]6[C@H](O)[C@@H](O)[C@@H](O[C@H]7[C@H](O)[C@@H](O)[C@@H](O[C@H]8[C@H](O)[C@@H](O)[C@@H](O[C@H]1[C@H](O)[C@H]2O)O[C@@H]8CO)O[C@@H]7CO)O[C@@H]6CO)O[C@@H]5CO)O[C@@H]4CO)O[C@@H]3CO [β-cyclodextrin]
- Ki [1]: 380 µM
- Ki [2]: 1110 µM
- Ki [3]: 210 µM
